Values after ≈ are worked out from the molar mass of the structure shown.

The conditions of this data set: buffer; pH 7.4; 200.0 µM.
`O=C(/C=C/c1ccco1)N(Cc1ccc(F)cc1)C1CCS(=O)(=O)C1` (stereo not given): the solubility (kinetic) was over 0.0545 mg/mL.
Turning to `Cc1ccc(C(=O)NC(C)C2CC3CCC2C3)cc1` (stereo not given), the kinetic solubility was under 0.0006 mg/mL.
Regarding `C/C(=C\C(=O)c1cccnc1)Nc1ccc(C(=O)O)cc1`, the kinetic solubility came out at 0.0313 mg/mL (≈ 111 µM).
`NS(=O)(=O)c1cccc(NC(=O)CSc2nnc(C3CC3)n2-c2ccccc2)c1` registered a kinetic solubility of over 0.0644 mg/mL.
The same measure for `S=C(NCc1ccccc1)NCc1cccc(Cl)c1`: 0.0232 mg/mL (≈ 79.8 µM).
Take `Cc1cccc(NC(=O)Cn2nc(-c3ccco3)ccc2=O)c1C`: the solubility (kinetic) is over 0.0485 mg/mL.
Compound `COc1cc(C(=O)OCC2CC(c3ccccc3)=NO2)cc(OC)c1OC` (stereo not given) came in with a solubility (kinetic) of 0.0382 mg/mL (≈ 103 µM).
With `Cc1nccn1CCOc1ccccc1Cl`, the solubility (kinetic) stood at 0.0332 mg/mL (≈ 140 µM).
Consider `COc1cccc(C(=O)COc2ccc(NC(=O)c3ccccc3)cc2)c1`, for which the kinetic solubility was under 0.0008 mg/mL.
`CC(=O)c1cccc(NC(=O)c2ccc(OC3CSC3)cc2)c1` came in with a solubility (kinetic) of under 0.0007 mg/mL.
As for `COc1ccc2c(C=O)cn(C)c2c1`, the solubility (kinetic) was over 0.0284 mg/mL.
In turn, `COc1c(C(=O)Nc2nccs2)ccc2ccccc12` showed a solubility (kinetic) of 0.017 mg/mL (≈ 59.8 µM).
For `CCCC(=O)C1=C(O)C(C(=O)OC)C(C)(C)CC1=NCCc1ccccc1` (stereo not given), the solubility (kinetic) was determined as 0.0534 mg/mL (≈ 144 µM).
The same measure for `COc1cccc(C(=O)OCC(=O)NCCC2=CCCCC2)c1`: 0.0258 mg/mL (≈ 81.3 µM); for `Cc1nc([N+](=O)[O-])c(Br)n1Cc1ccccc1`: over 0.0444 mg/mL.
The same measure for `Cc1ccccc1CSc1nc2ccccc2c(=O)n1C`: 0.0015 mg/mL (≈ 5.06 µM); for `COC(=O)C1=C(C)N(C)C(=S)NC1c1cc(OC)ccc1OC` (stereo not given): 0.0365 mg/mL (≈ 108 µM); for `Nc1ccccc1SCc1ccccc1`: 0.004 mg/mL (≈ 18.6 µM).
In turn, `Cc1ccc(NC(=O)Cn2cnc3cc([N+](=O)[O-])ccc3c2=O)cc1` came in with a solubility (kinetic) of 0.0039 mg/mL (≈ 11.5 µM).
Compound `CC(=O)c1ccccc1NC(=O)COC(=O)c1cc[n+]([O-])cc1` had a kinetic solubility of over 0.0471 mg/mL.
For `O=C1NC(=Nc2ccccc2)S/C1=C\c1ccccc1`, the solubility (kinetic) was found to be 0.0008 mg/mL (≈ 2.85 µM).
`CCOC(=O)C1=C(C)NC(=S)NC1c1ccco1` (stereo not given) returned a kinetic solubility of 0.0399 mg/mL (≈ 150 µM).
The compound `CC(=O)NC12CC3CC(C1)CC(C(=O)OCC(=O)c1cc(C)n(C)c1C)(C3)C2` yielded a solubility (kinetic) of 0.0495 mg/mL (≈ 128 µM).
On to `Cc1ccc(CNC2CCCCC2)s1.Cl`, for which the kinetic solubility is over 0.0369 mg/mL.
`CC(=O)c1cccc(NC(=O)N2CCOCC2)c1` gave a kinetic solubility of over 0.0372 mg/mL.
Consider `Cc1ccc(/C=C/C(=O)O)cc1S(=O)(=O)N1CCCCC1`, for which the kinetic solubility was over 0.0464 mg/mL.
For the compound `Cc1ccccc1S(=O)(=O)N1CCN(C)CC1`, the kinetic solubility was over 0.0382 mg/mL.
In the case of `Cc1nc2ccccc2c(=O)n1Cc1ccco1`, the kinetic solubility is over 0.036 mg/mL.
`Cc1ccc(Cl)c(NC(=O)CN2CCN(C=O)CC2)c1` displayed a kinetic solubility of 0.0366 mg/mL (≈ 124 µM).
Take `O=C(Nc1cccc2cccnc12)c1ccccc1Br`: the solubility (kinetic) stood at 0.0004 mg/mL (≈ 1.22 µM).
Compound `COC(=O)Cn1c(N2CCCC2)nc2c1c(=O)n(C)c(=O)n2C` showed a solubility (kinetic) of over 0.0482 mg/mL.
The compound `COc1cc2c(cc1OC)C(C)N(C(=O)c1c(-c3ccccc3)noc1C)CC2` (stereo not given) came in with a solubility (kinetic) of 0.009 mg/mL (≈ 22.9 µM).
`CC(C)(Oc1ccc(Cl)cc1)C(=O)O/N=C(\N)c1ccncc1` returned a solubility (kinetic) of 0.0343 mg/mL (≈ 103 µM).
The same measure for `O=C(O)CCn1c(-c2ccccn2)nc2ccccc21`: over 0.0401 mg/mL; for `Cc1ccc(NCC(=O)N/N=C/c2cc(O)ccc2[N+](=O)[O-])cc1`: over 0.0492 mg/mL; for `COc1ccc(OC)c2nc3c(cc12)CCC3`: 0.029 mg/mL (≈ 126 µM).
Consider `CN(C(=O)c1cc2ccccc2cc1O)C1CCCCC1`, for which the kinetic solubility is 0.0406 mg/mL (≈ 143 µM). This solubility kinetic and that of the compound before are within 1.5-fold of each other.
`O=C(Nc1ccc(F)cc1)Nc1cccnc1` had a solubility (kinetic) of over 0.0347 mg/mL.
Next, `CCc1ccc(N2CN=c3s/c(=C\c4ccccc4)c(=O)n3C2)cc1`: 0.0082 mg/mL (≈ 23.5 µM); `CN(C)c1ccc(C(=O)OCC(=O)NC2CCCCCC2)cc1`: 0.0028 mg/mL (≈ 8.79 µM).
The compound `O=C(NC(=S)NCc1ccco1)c1ccc([N+](=O)[O-])cc1` gave a kinetic solubility of 0.0046 mg/mL (≈ 15.1 µM).
The same measure for `O=C(O)c1cc(N2CCOCC2)nc2ccccc12`: 0.0379 mg/mL (≈ 147 µM); for `OCC1(Cc2ccccc2)CCN(Cc2cc3ccccc3o2)CC1`: over 0.0503 mg/mL.
As for `O=C(CSc1ncccn1)NC(=O)c1ccccc1`, the solubility (kinetic) is 0.0331 mg/mL (≈ 121 µM).
Next, `CC(=O)c1ccc(NC(=O)c2cnsn2)cc1`: 0.0291 mg/mL (≈ 118 µM); `O=C(CSc1nc(-c2ccccc2)ns1)N1CCOCC1`: 0.001 mg/mL (≈ 3.11 µM); `CCCNC(=O)CSc1nc2ccccc2c(=O)n1CCC`: 0.0271 mg/mL (≈ 84.8 µM).
On to `Cc1csc(NC(=O)CCCNC(=O)c2ccc(Cl)cc2)n1`, for which the kinetic solubility was 0.0102 mg/mL (≈ 30.2 µM).
Next, `CCCC(=O)NCc1ccccc1Cl`: 0.0302 mg/mL (≈ 143 µM).
Turning to `Cc1cccnc1NC(=O)CCC(=O)c1cccs1`, the kinetic solubility was over 0.0412 mg/mL.
Next, `OC(CNC1Cc2ccccc2C1)c1ccccc1` (stereo not given): over 0.038 mg/mL; `Nc1nc(-c2ccc(Oc3ccccc3)cc2)c(CC(=O)O)s1`: over 0.049 mg/mL.
Next, `CCN1CCN(S(=O)(=O)c2ccc3c4c(cccc24)C(=O)N3CC)CC1`: over 0.056 mg/mL; `CCc1ccc(NCc2ccc(OC)c(Cn3ccnc3)c2)cc1`: 0.0402 mg/mL (≈ 125 µM); `CC(C)(Oc1ccc(Cl)cc1)C(=O)NC1CCCCC1`: 0.0039 mg/mL (≈ 13.2 µM).
`CCOC(=O)c1ccccc1NC(=O)CSc1nncn1C`: the kinetic solubility is over 0.0481 mg/mL.
Next, `NC(=O)CN1C(=O)NC2(CCCc3sccc32)C1=O` (stereo not given): over 0.0419 mg/mL; `Cc1cccn2c(=O)c(C=O)c(Nc3ccccc3)nc12`: under 0.0002 mg/mL.
`CSc1nc2nc3c(cc2c(=O)n1-c1ccccc1C)CCCC3` returned a kinetic solubility of 0.0379 mg/mL (≈ 112 µM).
Turning to `Cc1ccc(N(Cc2ccccc2)C(=O)c2cccc(F)c2)cc1`, the solubility (kinetic) was 0.0111 mg/mL (≈ 34.8 µM). This solubility kinetic lies about 3.4-fold lower than the previous one.
Regarding `COc1ccccc1OCCC(=O)Nc1ccc2c(c1)OCO2`, the kinetic solubility was over 0.0473 mg/mL.
On to `CN(C(=O)CN1CCN(c2ccc([N+](=O)[O-])cn2)CC1)c1ccccc1`, for which the solubility (kinetic) is over 0.0533 mg/mL.
Next, `CSC1=N/C(=C/c2cccnc2)C(=O)N1Cc1ccc(Cl)cc1`: 0.0011 mg/mL (≈ 3.2 µM); `CC(C)N(Cc1ccccc1)S(=O)(=O)c1ccc(F)cc1`: 0.012 mg/mL (≈ 39 µM).
In turn, `O=C(COC(=O)c1ccncc1)c1ccccc1` gave a kinetic solubility of over 0.0362 mg/mL.
In turn, `COc1ccc(C(=O)COC(=O)c2cc(C)no2)c(OC)c1` had a solubility (kinetic) of over 0.0458 mg/mL.
`Brc1ccccc1OCCCCN1CCCCC1` came in with a kinetic solubility of 0.0391 mg/mL (≈ 125 µM).
Next, `COc1ccc(CNCc2cccc(C)c2)cc1.O=C(O)C(=O)O`: over 0.0497 mg/mL.
On to `CCOc1ccc(/C=C(\C(=O)O)c2ccc(S(=O)(=O)N3CCCCC3)s2)cc1OC`, for which the solubility (kinetic) was over 0.0677 mg/mL.
Next, `CCc1cccc(OCC2Cn3c(nc4c3c(=O)n(C)c(=O)n4C)O2)c1` (stereo not given): 0.0282 mg/mL (≈ 79.1 µM); `Cc1cc(C(=O)Nc2ccncc2)ccc1[N+](=O)[O-]`: 0.0184 mg/mL (≈ 71.5 µM); `O=C(COC(=O)CNC(=O)c1ccccc1)Nc1ccc(Cl)cn1`: 0.0158 mg/mL (≈ 45.4 µM).
The compound `COc1ccc(OCCNC(=O)Nc2cc(F)c(F)cc2Cl)cc1` registered a kinetic solubility of under 0.0004 mg/mL.
The same measure for `Cl.O=C1NCC2(CCN(CCc3ccccc3)CC2)O1`: over 0.0445 mg/mL; for `Cn1cccc1-c1nc2ccc([N+](=O)[O-])cc2[nH]1`: 0.0152 mg/mL (≈ 62.7 µM).

As usually defined, the solubility (kinetic) is solubility judged after dilution from a stock solution rather than from solid.

The values are drawn from PubChem BioAssay AID1996.
